Results: PMC10485887, “PET Evaluation of the Novel F-18 Labeled Reversible Radioligand [^18F]GEH200449 for Detection of Monoamine Oxidase-B in the Non-Human Primate Brain” (ACS Chemical Neuroscience, 2023)
Read-outs that look alike come from different tables or passages of the source.

Tested on: MAO-B
Format: in vivo, Macaca fascicularis
Conditions: for 2-TC parameter estimate k2 / 2-TC parameter estimate k3 / 2-TC parameter estimate k4 / 2-TC parameter estimate K1 / 2-TC parameter estimate VT / VT, 2-TC mean / VT, Logan mean: baseline
Protocol: At start of PET data acquisition, a sterile physiological phosphate buffer solution (pH = 7.4) of [^18F]GEH200449 (injected radioactivity, 107–167 MBq) was injected as a bolus into a sural vein. Emission data were acquired in list mode for 123 min. Arterial blood was sampled as previously described[28] using an automated blood sampling system (ABSS) during the first 3 min of each PET measurement. Subsequently, arterial blood samples (0.7–2.5 mL) were manually drawn at 7, 15, 30, 60, 90, and 120 min after injection of [^18F]GEH200449. After centrifugation, 0.15–1.0 mL of plasma was pipetted and plasma radioactivity was measured in a well counter. In addition, samples were taken directly from the ABSS at 0.5, 1, 1.5, 2, 2.5, and 3 min for cross-calibration with the well counter and for the determination of the plasma-to-blood ratio.
Dynamic images were reconstructed as previously described.[30],[31] Regions of interest (ROIs) for the whole brain and selected regions (caudate nucleus, putamen, thalamus, occipital cortex, prefrontal cortex, and cerebellum) were manually delineated on T1-weighted magnetic resonance images (MRIs) acquired as previously described.[21],[27] PET images were coregistered to the MRIs, and time-activity curves were generated by pooling ROIs for each paired anatomical region and applying the pooled ROIs to the coregistered PET images. Delineation of ROIs and image coregistrations were performed using the software PMOD v. 3.6 (PMOD Technologies, Zurich, Switzerland).
Time curves for regional [^18F]GEH200449 binding at baseline were analyzed by kinetic modeling using 1-TC and 2-TC models,[32] and VT as outcome measures. Akaike information criterion[33] and F statistics were applied to select the preferred model. Regional estimates of VT for [^18F]GEH200449 were also obtained using the Logan linear graphical method[34] with t* fixed at 40 min. The analyses were performed using the kinetic modeling tool in PMOD v. 4.3. Occupancy at [^18F]GEH200449 binding sites was estimated based on regional VT values obtained by the Logan method at baseline and after drug administration according to a graphical procedure described in the literature.[22]

O=c1ccoc2ccc(OCc3ccc([18F])nc3)cc12 [[^18F]GEH200449]
2-TC parameter estimate k2 (NHP #4, CER): 0.03 min⁻¹
2-TC parameter estimate k3 (NHP #4, CER): 0.001 min⁻¹
2-TC parameter estimate k4 (NHP #4, CER): 0.000 min⁻¹
2-TC parameter estimate K1 (NHP #4, OC): 0.31 mL min-1 cm-3
2-TC parameter estimate k2 (NHP #4, OC): 0.03 min⁻¹
2-TC parameter estimate k3 (NHP #4, OC): 0.001 min⁻¹
2-TC parameter estimate k4 (NHP #4, OC): 0.000 min⁻¹
2-TC parameter estimate K1 (NHP #4, PFC): 0.37 mL min-1 cm-3
2-TC parameter estimate VT (NHP #4, PFC): 13.9 mL cm-3
2-TC parameter estimate k2 (NHP #4, PFC): 0.03 min⁻¹
2-TC parameter estimate k3 (NHP #4, PFC): 0.002 min⁻¹
2-TC parameter estimate k4 (NHP #4, PFC): 0.013 min⁻¹
2-TC parameter estimate K1 (NHP #4, PUT): 0.57 mL min-1 cm-3
2-TC parameter estimate VT (NHP #4, PUT): 17.2 mL cm-3
2-TC parameter estimate k2 (NHP #4, PUT): 0.04 min⁻¹
2-TC parameter estimate k3 (NHP #4, PUT): 0.006 min⁻¹
2-TC parameter estimate k4 (NHP #4, PUT): 0.034 min⁻¹
2-TC parameter estimate K1 (NHP #4, THA): 0.53 mL min-1 cm-3
2-TC parameter estimate VT (NHP #4, THA): 18.1 mL cm-3
2-TC parameter estimate k2 (NHP #4, THA): 1.24 min⁻¹
2-TC parameter estimate k3 (NHP #4, THA): 4.043 min⁻¹
2-TC parameter estimate k4 (NHP #4, THA): 0.098 min⁻¹
2-TC parameter estimate K1 (NHP #4, WB): 0.34 mL min-1 cm-3
2-TC parameter estimate VT (NHP #4, WB): 13.1 mL cm-3
2-TC parameter estimate k2 (NHP #4, WB): 0.03 min⁻¹
2-TC parameter estimate k3 (NHP #4, WB): 0.003 min⁻¹
2-TC parameter estimate k4 (NHP #4, WB): 0.016 min⁻¹
2-TC parameter estimate K1 (NHP #5, CAU): 0.93 mL min-1 cm-3
2-TC parameter estimate VT (NHP #5, CAU): 34.1 mL cm-3
2-TC parameter estimate k2 (NHP #5, CAU): 0.05 min⁻¹
2-TC parameter estimate k3 (NHP #5, CAU): 0.004 min⁻¹
2-TC parameter estimate k4 (NHP #5, CAU): 0.004 min⁻¹
2-TC parameter estimate K1 (NHP #5, CER): 0.51 mL min-1 cm-3
2-TC parameter estimate VT (NHP #5, CER): 16.0 mL cm-3
2-TC parameter estimate k2 (NHP #5, CER): 0.05 min⁻¹
2-TC parameter estimate k3 (NHP #5, CER): 0.006 min⁻¹
2-TC parameter estimate k4 (NHP #5, CER): 0.011 min⁻¹
2-TC parameter estimate K1 (NHP #5, OC): 0.37 mL min-1 cm-3
2-TC parameter estimate k2 (NHP #5, OC): 0.04 min⁻¹
2-TC parameter estimate k3 (NHP #5, OC): 0.002 min⁻¹
2-TC parameter estimate k4 (NHP #5, OC): 0.000 min⁻¹
2-TC parameter estimate K1 (NHP #5, PFC): 0.61 mL min-1 cm-3
2-TC parameter estimate VT (NHP #5, PFC): 20.4 mL cm-3
2-TC parameter estimate k2 (NHP #5, PFC): 0.05 min⁻¹
2-TC parameter estimate k3 (NHP #5, PFC): 0.004 min⁻¹
2-TC parameter estimate k4 (NHP #5, PFC): 0.006 min⁻¹
2-TC parameter estimate K1 (NHP #5, PUT): 0.86 mL min-1 cm-3
2-TC parameter estimate VT (NHP #5, PUT): 21.1 mL cm-3
2-TC parameter estimate k2 (NHP #5, PUT): 0.06 min⁻¹
2-TC parameter estimate k3 (NHP #5, PUT): 0.007 min⁻¹
2-TC parameter estimate k4 (NHP #5, PUT): 0.012 min⁻¹
2-TC parameter estimate K1 (NHP #5, THA): 0.64 mL min-1 cm-3
2-TC parameter estimate VT (NHP #5, THA): 27.7 mL cm-3
2-TC parameter estimate k2 (NHP #5, THA): 0.04 min⁻¹
2-TC parameter estimate k3 (NHP #5, THA): 0.004 min⁻¹
2-TC parameter estimate k4 (NHP #5, THA): 0.005 min⁻¹
2-TC parameter estimate K1 (NHP #5, WB): 0.50 mL min-1 cm-3
2-TC parameter estimate VT (NHP #5, WB): 17.3 mL cm-3
2-TC parameter estimate k2 (NHP #5, WB): 0.05 min⁻¹
2-TC parameter estimate k3 (NHP #5, WB): 0.005 min⁻¹
2-TC parameter estimate k4 (NHP #5, WB): 0.008 min⁻¹
pattern of regional radioactivity (binding) (baseline PET images and time curves): high binding in the striatum and thalamus, whereas the binding was lower in the cortex and cerebellum
VT, 2-TC mean (caudate nucleus, n = 4): 22.0 mL cm^–3
VT, Logan mean (caudate nucleus, n = 4): 18.9 mL cm^–3
VT, 2-TC mean (cerebellum, n = 3): 13.6^** mL cm^–3
VT, Logan mean (cerebellum, n = 4): 12.6 mL cm^–3
VT, 2-TC mean (occipital cortex, n = 2): 11.0^* mL cm^–3
VT, Logan mean (occipital cortex, n = 4): 11.0 mL cm^–3
VT, 2-TC mean (prefrontal cortex, n = 4): 14.7 mL cm^–3
VT, Logan mean (prefrontal cortex, n = 4): 13.1 mL cm^–3
VT, 2-TC mean (putamen, n = 4): 17.3 mL cm^–3
VT, Logan mean (putamen, n = 4): 16.5 mL cm^–3
VT, 2-TC mean (thalamus, n = 4): 19.8 mL cm^–3
VT, Logan mean (thalamus, n = 4): 17.3 mL cm^–3
VT, 2-TC mean (whole brain, n = 4): 13.5 mL cm^–3
VT, Logan mean (whole brain, n = 4): 12.4 mL cm^–3
